# Experimental data published in PubChem BioAssay (NCI).
#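 48-hour exposure; five concentrations; linearly interpolated endpoints. TGI: concentration producing complete growth inhibition.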
# Key:
# Experiment in all cases: growth of human tumour cells (NCI), 48 h
# [1] = tested on: 786-0 renal
# [2] = tested on: A498 renal
# [3] = tested on: A549 NSCLC
# [4] = tested on: ACHN renal
# [5] = tested on: BT-549 breast
# [6] = tested on: CAKI-1 renal
# [7] = tested on: CCRF-CEM leukemia
# [8] = tested on: COLO 205 colon
# [9] = tested on: DU-145 prostate
# [10] = tested on: EKVX NSCLC
# [11] = tested on: HCT-116 colon
# [12] = tested on: HCT-15 colon
# [13] = tested on: HL-60(TB) leukemia
# [14] = tested on: HOP-62 NSCLC
# [15] = tested on: HOP-92 NSCLC
# [16] = tested on: HS 578T breast
# [17] = tested on: HT29 colon
# [18] = tested on: IGROV1 ovarian
# [19] = tested on: K-562 leukemia
# [20] = tested on: KM12 colon
# [21] = tested on: LOX IMVI melanoma
# [22] = tested on: M14 melanoma
# [23] = tested on: MALME-3M melanoma
# [24] = tested on: MDA-MB-231 breast
# [25] = tested on: MDA-MB-435
# [26] = tested on: MDA-N
# [27] = tested on: MOLT-4 leukemia
# [28] = tested on: NCI-H226 lung
# [29] = tested on: NCI-H23 lung
# [30] = tested on: NCI-H460 lung
# [31] = tested on: NCI-H522 lung
# [32] = tested on: NCI/ADR-RES ovarian
# [33] = tested on: OVCAR-3 ovarian
# [34] = tested on: OVCAR-4 ovarian
# [35] = tested on: OVCAR-5 ovarian
# [36] = tested on: OVCAR-8 ovarian
# [37] = tested on: PC-3 prostate
# [38] = tested on: RPMI-8226 leukemia
# [39] = tested on: RXF 393 renal
# [40] = tested on: SF-268 CNS
# [41] = tested on: SF-295 CNS
# [42] = tested on: SF-539 CNS
# [43] = tested on: SK-MEL-2 melanoma
# [44] = tested on: SK-MEL-28 melanoma
# [45] = tested on: SK-MEL-5 melanoma
# [46] = tested on: SK-OV-3 ovarian
# [47] = tested on: SN12C renal
# [48] = tested on: SNB-19 CNS
# [49] = tested on: SNB-75 CNS
# [50] = tested on: SR leukemia
# [51] = tested on: SW-620 colon
# [52] = tested on: T-47D breast
# [53] = tested on: TK-10 renal
# [54] = tested on: U251 CNS
# [55] = tested on: UACC-257 melanoma
# [56] = tested on: UACC-62 melanoma
# [57] = tested on: UO-31 renal
smiles,measurement,setting,value
CC1(C)CCCCCCC2CC2CCCCCC(C)(C)C1=O (configuration not stated),TGI,[1],> 100 µM
same,TGI,[2],> 100 µM
same,TGI,[3],> 100 µM
same,TGI,[4],> 100 µM
same,TGI,[5],> 100 µM
same,TGI,[6],> 100 µM
same,TGI,[7],39.4 µM
same,TGI,[8],> 100 µM
same,TGI,[9],> 100 µM
same,TGI,[10],> 100 µM
same,TGI,[11],> 100 µM
same,TGI,[12],> 100 µM
same,TGI,[13],32.7 µM
same,TGI,[14],> 100 µM
same,TGI,[15],> 100 µM
same,TGI,[16],> 100 µM
same,TGI,[17],> 100 µM
same,TGI,[18],> 100 µM
same,TGI,[19],98.1 µM
same,TGI,[20],> 100 µM
same,TGI,[21],63.6 µM
same,TGI,[22],> 100 µM
same,TGI,[23],> 100 µM
same,TGI,[24],> 100 µM
same,TGI,[25],> 100 µM
same,TGI,[26],> 100 µM
same,TGI,[27],> 100 µM
same,TGI,[28],> 100 µM
same,TGI,[29],> 100 µM
same,TGI,[30],> 100 µM
same,TGI,[31],> 100 µM
same,TGI,[32],> 100 µM
same,TGI,[33],> 100 µM
same,TGI,[34],> 100 µM
same,TGI,[35],> 100 µM
same,TGI,[36],> 100 µM
same,TGI,[37],> 100 µM
same,TGI,[38],70.1 µM
same,TGI,[39],> 100 µM
same,TGI,[40],> 100 µM
same,TGI,[41],> 100 µM
same,TGI,[42],> 100 µM
same,TGI,[43],> 100 µM
same,TGI,[44],> 100 µM
same,TGI,[45],> 100 µM
same,TGI,[46],> 100 µM
same,TGI,[47],> 100 µM
same,TGI,[48],> 100 µM
same,TGI,[49],> 100 µM
same,TGI,[50],20.7 µM
same,TGI,[51],> 100 µM
same,TGI,[52],> 100 µM
same,TGI,[53],> 100 µM
same,TGI,[54],> 100 µM
same,TGI,[55],> 100 µM
same,TGI,[56],> 100 µM
same,TGI,[57],> 100 µM
